In US20120231482A1, “METHOD, KIT OR DIAGNOSTIC FOR THE DETECTION OF REAGENTS WHICH INDUCE ALTERED CONTRACTILITY” (THE JOHNS HOPKINS UNIVERSITY, priority 2009, published 2012):

Legend:
Experiment in all cases: Modified biotin switch assay, sites of HNO modification
myosin heavy chain α = target: T1, myosin heavy chain α (Rattus norvegicus, UniProt P02563); type: biochemical; details: for number of independent observations of peptide: Cys 37, 25 μM NCA or 500 μM AS; for Position of modified Cys: myosin heavy chain (α), Table 2
T1 construct: Rat myofibrillar preparations, as described in [7], were obtained from frozen ventricles (Pel Freez Biologicals); tissue Pel Freez Biologicals; host or cells: myofibrils from frozen rat ventricles
T1 sequence (P02563 whole entry): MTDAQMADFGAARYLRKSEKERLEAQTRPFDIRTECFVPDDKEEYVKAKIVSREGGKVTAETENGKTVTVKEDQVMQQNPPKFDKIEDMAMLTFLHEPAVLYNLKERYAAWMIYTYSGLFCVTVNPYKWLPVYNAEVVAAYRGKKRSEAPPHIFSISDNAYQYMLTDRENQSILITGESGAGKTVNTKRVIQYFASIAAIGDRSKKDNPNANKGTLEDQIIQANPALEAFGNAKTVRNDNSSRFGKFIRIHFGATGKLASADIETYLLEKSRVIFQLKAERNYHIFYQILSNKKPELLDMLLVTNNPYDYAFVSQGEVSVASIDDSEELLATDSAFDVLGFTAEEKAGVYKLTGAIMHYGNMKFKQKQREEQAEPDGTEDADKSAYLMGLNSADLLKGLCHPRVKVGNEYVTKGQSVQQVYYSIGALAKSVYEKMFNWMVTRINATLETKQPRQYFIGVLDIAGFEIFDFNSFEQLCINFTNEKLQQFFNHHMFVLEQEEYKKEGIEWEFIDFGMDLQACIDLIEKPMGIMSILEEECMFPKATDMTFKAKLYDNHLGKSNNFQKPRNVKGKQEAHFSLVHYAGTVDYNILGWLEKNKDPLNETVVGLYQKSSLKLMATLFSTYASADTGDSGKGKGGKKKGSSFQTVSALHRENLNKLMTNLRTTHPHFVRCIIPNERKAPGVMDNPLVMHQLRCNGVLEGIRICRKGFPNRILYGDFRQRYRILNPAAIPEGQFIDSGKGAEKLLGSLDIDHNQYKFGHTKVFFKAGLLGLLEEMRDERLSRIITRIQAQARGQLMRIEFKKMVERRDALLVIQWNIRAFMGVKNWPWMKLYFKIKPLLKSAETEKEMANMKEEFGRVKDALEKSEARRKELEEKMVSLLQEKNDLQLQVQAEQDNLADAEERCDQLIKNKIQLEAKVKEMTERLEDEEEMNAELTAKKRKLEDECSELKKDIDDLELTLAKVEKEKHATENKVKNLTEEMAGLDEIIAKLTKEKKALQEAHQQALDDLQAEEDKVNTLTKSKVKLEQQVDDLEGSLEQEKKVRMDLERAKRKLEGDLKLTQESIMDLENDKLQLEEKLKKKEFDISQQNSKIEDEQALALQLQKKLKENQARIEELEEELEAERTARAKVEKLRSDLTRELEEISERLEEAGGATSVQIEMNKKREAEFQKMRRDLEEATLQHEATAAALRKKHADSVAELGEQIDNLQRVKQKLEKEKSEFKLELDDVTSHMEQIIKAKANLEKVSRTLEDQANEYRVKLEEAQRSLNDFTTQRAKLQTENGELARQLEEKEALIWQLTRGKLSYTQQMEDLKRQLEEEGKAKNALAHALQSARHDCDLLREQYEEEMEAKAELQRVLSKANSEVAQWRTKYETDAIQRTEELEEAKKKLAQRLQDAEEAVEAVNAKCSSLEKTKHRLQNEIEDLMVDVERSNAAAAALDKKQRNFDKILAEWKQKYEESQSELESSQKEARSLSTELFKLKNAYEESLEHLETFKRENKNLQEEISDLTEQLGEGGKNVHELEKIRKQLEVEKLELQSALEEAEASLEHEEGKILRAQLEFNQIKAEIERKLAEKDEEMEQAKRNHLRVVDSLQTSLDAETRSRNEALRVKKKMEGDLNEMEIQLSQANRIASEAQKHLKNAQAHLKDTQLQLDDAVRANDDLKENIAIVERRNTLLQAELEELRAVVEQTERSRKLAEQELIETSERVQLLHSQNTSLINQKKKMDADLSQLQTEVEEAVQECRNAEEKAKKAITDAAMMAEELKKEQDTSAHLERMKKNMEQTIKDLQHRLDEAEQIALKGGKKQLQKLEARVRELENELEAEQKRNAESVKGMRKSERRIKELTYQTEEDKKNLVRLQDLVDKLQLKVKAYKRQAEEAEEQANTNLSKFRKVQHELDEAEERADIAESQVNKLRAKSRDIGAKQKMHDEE
Protocol: (§1) Rat myofibrillar preparations, as described in [7], were obtained from frozen ventricles (Pel Freez Biologicals) minced in 20 volumes/tissue weight of 4° C. relax buffer (SRB (75 mM KCL, 10 mM imidazole pH 7.2, 2 mM MgCl2) plus 4 mM phosphocreatine, 1 mM ATP, 50 mM BDM, 1 mM benzamidine-HCL, 0.1 mM PMSF, 1 μg/ml leupeptin, 1 μg/ml pepstatin, 1% (v/v) Trixon X-100) and adjusted to 10 mM EDTA. Minced preparations were centrifuged for 8 min at 3000xg and the supernant was decanted. Resulting pellets were resuspended in 10 volumes of SRB plus 1% Triton X-100 and subjected to 6 strokes in a Duall tissue homogenizer and centrifuged as above. Pellets were gently resuspended and centrifuged as above twice more in SRB including 1% (v/v) Triton X-100, twice in SRB lacking Triton X-100 and once in K-60 buffer (60 mM KCL, 20 mM MOPS, 2 mM MgCl2 pH 7) before being resuspended in 5 volumes of K-60.
(§2) Detection of HNO modifications by Modified Biotin Switch. HNO modified thiols were detected using a modification to the standard biotin switch protocol. In brief, 100 μg of rat myofibrils/treatment were diluted to 0.5 μg/μl in HEN (250 mM HEPES pH 7.7, 1 mM EDTA and 0.1 mM neocuproine) including 0.1% (w/v) SDS and exposed to a treatment for 10 min at 37° C. which was subsequently removed by acetone precipitation. Remaining free thiols were blocked by addition of 300 μl of HEN including 2.5% (w/v) SDS and 20 mM N-ethylmaleimide (NEM), incubated for 20 min at 50° C. Excess NEM was removed by acetone precipitation. HNO and/or NO modified thiols were reduced using 5 mM DTT or 1 mM ascorbate in 150 μl of HEN including 1% (w/v) SDS and biotinylated with 0.8 mM Biotin-HPDP (Pierce) for one hour at room temperature. Excess biotin-HPDP was removed by acetone precipitation (2 volumes) and resultant pellets were carefully washed with an additional volume of acetone. Biotinylated proteins were resuspended in 1 ml of HEN including 0.1% (w/v) SDS and captured by incubation with 15 μl of washed, packed Ultralink Immobilized Streptavidin (Pierce) for one hour at room temperature. Beads were washed four times in 50 bead volumes of HEN (twice including 0.1% (w/v) SDS, twice including 600 mM NaCl) and twice with EB (20 mM HEPES pH 7.7, 100 mM NaCl, 1 mM EDTA). Captured proteins were eluted with 40 μl of EB containing 100 mM DTT, mixed with 15 μl of 4×LDS sample buffer, boiled, separated by SDS PAGE and silver stained. For MS studies, biotinylated proteins were digested overnight with trypsin (Promega) prior to capture and washed ten additional times with 5 mM ammonium bicarbonate/20% acetonitrile before being eluted in 100 μl of wash buffer including 100 mM DTT as described. Captured peptides were identified using a LTQ linear ion trap tandem mass spectrometer (ThermoFinnigan, Waltham Mass. USA) with data searched against the rat IPI primary sequence database using the sorcerer searching platform (sagen).
(§3) To investigate the modifications that underlie the difference seen in the functional effect of these two compounds we performed an analysis on the myofilament proteins, using a modified biotin-switch method, followed by mass spectrometry for identification (FIG. 3). Following treatment with HNO or control compounds, unmodified cysteines are blocked with NEM before treatment with a reducing agent and labeling the exposed cysteines with a biotin group (FIG. 3A). In this case, 5 mM DTT was used as the reducing agent because it was shown in the physiological studies to reverse the effect of the treatment. […] Tryptic or chymotryptic peptides containing the modified cysteine residues were captured and identified by LC/MS/MS. […] To parse the role of candidate sites of modification between these two effects a comparative proteomics experiment was designed where modifications specific to NCA treatment would be considered candidates for the Ca^2+ effect while sites identified in common between AS and NCA could be candidates for the force effect (FIG. 3C). […]

myosin light chain 1 = target: T2, myosin light chain 1 (Rattus norvegicus, UniProt P16409); type: biochemical; details: for number of independent observations of peptide: Cys 81, tryptic peptide ITYGQCGDVLR, 25 μM NCA or 500 μM AS; for Position of modified Cys: myosin light chain 1, Table 2
T2 construct: Rat myofibrillar preparations, as described in [7], were obtained from frozen ventricles (Pel Freez Biologicals); tissue Pel Freez Biologicals; host or cells: myofibrils from frozen rat ventricles
T2 sequence (P16409 whole entry): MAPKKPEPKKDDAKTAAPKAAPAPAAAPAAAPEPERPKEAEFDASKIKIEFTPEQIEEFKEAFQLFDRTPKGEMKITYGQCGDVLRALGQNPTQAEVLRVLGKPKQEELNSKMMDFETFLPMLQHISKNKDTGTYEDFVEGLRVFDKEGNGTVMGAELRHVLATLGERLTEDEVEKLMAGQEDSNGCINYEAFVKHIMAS
Protocol: as §1, §2, §3

myson binding protein C = target: T3, myson binding protein C (Rattus norvegicus, UniProt P56741); type: biochemical; details: for number of independent observations of peptide: Cys 475, 25 μM NCA or 500 μM AS; for Position of modified Cys: myosin binding protein C, Table 2
T3 construct: Rat myofibrillar preparations, as described in [7], were obtained from frozen ventricles (Pel Freez Biologicals); tissue Pel Freez Biologicals; host or cells: myofibrils from frozen rat ventricles
T3 sequence (P56741 whole entry): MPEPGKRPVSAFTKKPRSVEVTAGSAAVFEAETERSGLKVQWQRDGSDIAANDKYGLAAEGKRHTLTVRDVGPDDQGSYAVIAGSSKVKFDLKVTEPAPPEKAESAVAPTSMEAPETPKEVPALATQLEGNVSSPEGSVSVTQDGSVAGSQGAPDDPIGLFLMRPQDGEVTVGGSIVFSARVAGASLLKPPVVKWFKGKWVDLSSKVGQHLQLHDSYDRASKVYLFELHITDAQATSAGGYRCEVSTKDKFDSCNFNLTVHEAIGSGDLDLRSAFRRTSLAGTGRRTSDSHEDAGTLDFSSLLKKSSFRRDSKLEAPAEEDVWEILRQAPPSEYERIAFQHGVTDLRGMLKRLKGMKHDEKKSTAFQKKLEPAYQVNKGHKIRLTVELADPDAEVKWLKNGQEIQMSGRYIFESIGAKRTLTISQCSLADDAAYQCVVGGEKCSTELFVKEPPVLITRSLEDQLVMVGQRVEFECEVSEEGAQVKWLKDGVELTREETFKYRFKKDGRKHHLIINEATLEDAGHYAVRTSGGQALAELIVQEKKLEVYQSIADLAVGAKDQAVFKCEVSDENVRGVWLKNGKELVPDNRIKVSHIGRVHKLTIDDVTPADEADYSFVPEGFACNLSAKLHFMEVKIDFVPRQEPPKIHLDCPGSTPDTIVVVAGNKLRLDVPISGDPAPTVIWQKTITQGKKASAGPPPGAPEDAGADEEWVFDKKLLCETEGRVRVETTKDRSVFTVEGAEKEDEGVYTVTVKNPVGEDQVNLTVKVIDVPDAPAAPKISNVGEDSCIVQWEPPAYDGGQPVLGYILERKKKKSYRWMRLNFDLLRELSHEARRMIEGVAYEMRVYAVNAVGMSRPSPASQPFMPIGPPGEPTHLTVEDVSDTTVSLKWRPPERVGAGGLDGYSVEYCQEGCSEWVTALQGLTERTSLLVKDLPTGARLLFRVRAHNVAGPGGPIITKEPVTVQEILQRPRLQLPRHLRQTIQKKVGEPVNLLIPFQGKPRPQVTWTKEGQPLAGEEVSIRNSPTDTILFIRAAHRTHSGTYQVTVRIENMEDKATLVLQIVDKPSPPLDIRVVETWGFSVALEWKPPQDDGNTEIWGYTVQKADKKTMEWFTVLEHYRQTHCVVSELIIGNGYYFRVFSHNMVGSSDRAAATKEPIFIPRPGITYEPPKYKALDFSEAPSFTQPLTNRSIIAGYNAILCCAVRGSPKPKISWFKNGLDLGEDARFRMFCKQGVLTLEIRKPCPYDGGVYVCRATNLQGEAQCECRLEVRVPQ
Protocol: as §1, §2, §3

troponin C (cardiac) = target: T4, troponin C (cardiac) (Rattus norvegicus, UniProt Q4PP99); type: biochemical; details: for number of independent observations of peptide: Cys 35, tryptic peptide AAFDIFVLGAEDGCISTK, 25 μM NCA or 500 μM AS; for Position of modified Cys: troponin C, Table 2
T4 construct: Rat myofibrillar preparations, as described in [7], were obtained from frozen ventricles (Pel Freez Biologicals); tissue Pel Freez Biologicals; host or cells: myofibrils from frozen rat ventricles
Protocol: as §1, §2, §3

α actin = target: T5, α actin (Rattus norvegicus, UniProt P68035); type: biochemical; details: 25 μM NCA or 500 μM AS
T5 construct: Rat myofibrillar preparations, as described in [7], were obtained from frozen ventricles (Pel Freez Biologicals); tissue Pel Freez Biologicals; host or cells: myofibrils from frozen rat ventricles
Protocol: as §1, §2, §3

myosin heavy chain α/β = type: biochemical, rat; details: for number of independent observations of peptide: 25 μM NCA or 500 μM AS; for Position of modified Cys: myosin heavy chain (α/β), Table 2
Protocol: as §1, §2, §3

α actinin = type: biochemical, rat; details: for number of independent observations of peptide: Cys 889, tryptic peptide ELPPDQAQYCIKR, 25 μM NCA or 500 μM AS; for Position of modified Cys: α-Actinin, Table 2
Protocol: as §1, §2, §3

[1] = Cys 12, tryptic peptide DDEETTALVCDNGSLVK
[2] = Cys 219, tryptic peptide LCYVALDFENEMATAASSSLEK

SMILES	number of independent observations of peptide (myosin heavy chain α; chymotryptic peptide DIRTECFVPDDKEEY)	number of independent observations of peptide (myosin heavy chain α; tryptic peptide TECFVPDDKEEYVK)	Position of modified Cys (myosin heavy chain α)	number of independent observations of peptide (myosin light chain 1)	Position of modified Cys (myosin light chain 1)	number of independent observations of peptide (myson binding protein C; chymotryptic peptide ECEVSEEGAQVKW)	Position of modified Cys (myson binding protein C)	number of independent observations of peptide (troponin C (cardiac))	Position of modified Cys (troponin C (cardiac))	number of independent observations of peptide (α actin; Cys 12, chymotryptic peptide VCDNGSLVKAGF)	number of independent observations of peptide (α actin; [1])	number of independent observations of peptide (α actin; [2])	number of independent observations of peptide (myosin heavy chain α/β; Cys 907, chymotryptic peptide ADAEERCDQL)	Position of modified Cys (myosin heavy chain α/β)	number of independent observations of peptide (α actinin)	Position of modified Cys (α actinin)	number of independent observations of peptide (myson binding protein C; tryptic peptide VEFECEVSEEGAQVK)	number of independent observations of peptide (α actin; Cys 257, chymotryptic peptide RCPETLFQPSF)	number of independent observations of peptide (myosin heavy chain α/β; Cys 1750, tryptic peptide MDADLSQLQTEVEEAVQECR)
[Na+].[Na+].[O-][N+]([O-])=NO [AS, Angeli's Salt]	3	3	37(α)	2	81	2	475	2	35	2	3	1	2	907(α/β)	3	889			
CC(=O)OC1(N=O)CCCCC1 [NCA, 1-nitrosocyclohexylacetate]		3	37(α)	2	81		475	2	35		3	1		1750(α/β)	2	889	1	1	2
